Measurements from patent US4879295A, “N-tetrazolyl thiazolecarboxyamide derivatives and their use” (Sawai Pharmaceutical Co., Ltd., priority 1986, dated 1989).

How the values were obtained:
[1] = test system: passive cutaneous anaphylaxis (PCA); experiment: Anti-passive cutaneous anaphylaxis (PCA) activity in rats, 48-hours PCA (TEST EXAMPLE 1); format: in vivo, rat (Wistar strain male); settings: Rattus norvegicus
Description: Anti-passive cutaneous anaphylaxis (PCA) activity in rats
(§1) Wistar strain male rats (6 weeks old) were purchased from Shizuoka Experimental Animal Agricultural Cooperative (Japan), habituated to a breeding environment for 1 week before using for the experiment.
(2) Preparation of antiserum
Preparation of antiserum was carried out according to the method described in J. Immunol. 106, 1002-1011 (1971).
(§2) Thus, Ascaris suum extract was dinitrophenylated (DNP-As) and infused subcutaneously together with dead Bordetella pertussis at four sites on the foot-pad. After 5 days, the rats were boostered with DNP-As (1 mg) at the dosal muscle. After 3 days, bloods samples were collected and serum was separated which was used as anti DNP-As antiserum. The titer of the antiserum was measured by rats 48-hours PCA and found to be 1:200.
Rats were sensitized with 35 times dilution of anti DNP-As antiserum administered at two sites in the pre-clipped right dosal skin. After 48 hours, DNP-As (500 μg in 0.5% Evans blue-physiological saline (1 ml) was administered into caudal vein to elicit the reaction. Then, 30 minutes later, the animals were decapitated, the dosal skin was peeled, two sensitized areas as well as one control area were cut off and analyzed for Evans blue exudation which was used as an indicative of the reaction according to the method disclosed in Microbiol. Immunol. 22, 89-101 (1978). Thus, cut skins were treated with 1N-NaOH (1 ml) and incubated at 37° C. for 16 hours to dissolve the skin tissue. A mixed solution (9 ml) of 0.6N-phosphoric acid-acetone (5:13) was added and the mixture was centrifuged (300 r.p.m) for 15 minutes. The supernatant was assayed for absorption at 620 nm and the exudation of Evans blue was determined. Test compounds (I) were administered either into caudal vein 5 minutes before the elicitation of the reaction, or perorally as a suspension in 0.5% 1 hour before the elicitation.

[2] = test system: passive cutaneous anaphylaxis (PCA); experiment: Anti-passive cutaneous anaphylaxis (PCA) activity in rats, P.O. only (TEST EXAMPLE 2); format: in vivo, rat (Wistar strain male); settings: 1 hour before elicitation
Description: as §1, §2
Rats were sensitized with 35 times dilution of anti DNP-As antiserum administered at two sites in the pre-clipped right dosal skin. […] The supernatant was assayed for absorption at 620 nm and the exudation of Evans blue was determined. […]

[3] = iv, I.V. (caudal vein), 5 minutes before elicitation
[4] = po, P.O., 1 hour before elicitation

SMILES	inhibition in vivo at 2 mg/kg [1, 3]	other results
COc1ccc(O)c(-c2nc(C(=O)Nc3nnn[nH]3)cs2)c1 [Compound I-20, 2-(2-hydroxy-5-methoxyphenyl)-N-(1H-tetrazole-5-yl)-4-thiazolecarboxamide]	93%	–
O=C(Nc1nnn[nH]1)c1csc(-c2ccccc2OCc2ccccc2)n1 [Compound I-23, 2-(2-benzyloxyphenyl)-N-(1H-tetrazole-5-yl)-4-thiazolecarboxamide]	98%	–
Cc1ccc(O)c(-c2nc(C(=O)Nc3nnn[nH]3)cs2)c1 [Compound I-22, 2-(2-hydroxy-5-methylphenyl)-N-(1H-tetrazole-5-yl)-4-thiazolecarboxamide]	81%	–
Cc1ccc(-c2nc(C(=O)Nc3nnn[nH]3)cs2)cc1 [Compound I-7]	–	inhibition in vivo at 30 mg/kg [1, 4]: 76%
COc1ccccc1-c1nc(C(=O)Nc2nnn[nH]2)cs1 [Compound I-2]	99%	inhibition in vivo at 50 mg/kg [1, 4]: 60%
O=C(Nc1nnn[nH]1)c1csc(-c2ccccc2O)n1 [Compound I-1]	99%	inhibition in vivo at 0.5 mg/kg ([1]; iv, I.V. (caudal vein), 0.5 mg/kg, 5 minutes before elicitation): 67%; inhibition in vivo at 1.5 mg/kg ([1]; iv, I.V. (caudal vein), 1.5 mg/kg, 5 minutes before elicitation): 98%
COc1ccc(-c2nc(C(=O)Nc3nnn[nH]3)cs2)cc1 [Compound I-4]	98%	–
COc1ccc(/C=C/C(=O)Nc2ccccc2C(=O)O)cc1OC [Tranilast, tranilast, reference compound]	–	inhibition in vivo at 50 mg/kg [1, 4]: 0%; Inhibition ([2]; 50 mg/kg): 0%
COc1cccc(-c2nc(C(=O)Nc3nnn[nH]3)cs2)c1 [Compound I-3, 2-(3-methoxyphenyl)-N-(1H-tetrazole-5-yl)-4-thiazolecarboxamide]	99%	inhibition in vivo at 30 mg/kg [1, 4]: 77%
O=C(O)c1cc(=O)c2c(OCC(O)COc3cccc4oc(C(=O)O)cc(=O)c34)cccc2o1 [DSCG, disodium cromoglicate, reference compound]	–	inhibition in vivo at 5 mg/kg ([1]; iv, I.V. (caudal vein), 5 mg/kg, 5 minutes before elicitation): 92%
O=C(Nc1nnn[nH]1)c1csc(-c2cc(Cl)ccc2O)n1 [Compound I-19, 2-(5-chloro-2-hydroxyphenyl)-N-(1H-tetrazole-5-yl)-4-thiazolecarboxamide]	97%	–
O=C(Nc1nnn[nH]1)c1csc(-c2cc([N+](=O)[O-])ccc2O)n1 [Compound I-21, 2-(2-hydroxy-5-nitrophenyl)-N-(1H-tetrazole-5-yl)-4-thiazolecarboxamide]	98%	–
Cc1ccc(-c2nc(C(=O)Nc3nnn[nH]3)c(C)s2)cc1 [Compound I-27, 2-(4-methylphenyl)-5-methyl-N-(1H-tetrazole-5-yl)-4-thiazolecarboxamide]	–	inhibition in vivo at 25 mg/kg ([1]; po, P.O., 25 mg/kg, 1 hour before elicitation): 91%
O=C(Nc1nnn[nH]1)c1csc(-c2cccc(C(F)(F)F)c2)n1 [Compound I-17, 2-(3-trifluoromethylphenyl)-N-(1H-tetrazole-5-yl)-4-thiazolecarboxamide]	98%	–
Cc1ccc(-c2nc(C(=O)Nc3nnn[nH]3)c(C)s2)s1 [Compound I-42, 2-(5-Methyl-2-thienyl)-5-methyl-N-(1H-tetrazole-5-yl)-4-thiazolecarboxamide]	–	Inhibition ([2]; 25 mg/kg): 73%
